From ChEMBL document CHEMBL1159243, “Chemical and biological investigation of the polar constituents of the starfish Luidia clathrata, collected in the Gulf of Mexico” (1995)

Assays:
[1] = system: Bacillus subtilis; assay: Antimicrobial activity against Bacillus subtilis at 50 ug/disk after 24 to 72 hrs; type: functional; conditions: read-out: IZ
[2] = system: Staphylococcus aureus; assay: Antimicrobial activity against Staphylococcus aureus at 50 ug/disk after 24 to 72 hrs; type: functional; conditions: read-out: IZ

CC(C)[C@@H](O)CC[C@@H](C)[C@H]1C[C@H](OS(=O)(=O)O)[C@H]2[C@@H]3C[C@@H](O)[C@@]4(O)C[C@@H](O)CC[C@]4(C)[C@H]3CC[C@@]21C
zone of inhibition at 50 µg/disc [1]: 3 mm
zone of inhibition at 50 µg/disc [2]: 1 mm

C[C@H](CO)CCC[C@@H](C)[C@H]1[C@@H](O)[C@H](O)[C@H]2[C@@H]3[C@H](O)[C@@H](O)[C@H]4C[C@@H](O)CC[C@]4(C)[C@H]3CC[C@]12C
zone of inhibition at 50 µg/disc [1]: 2 mm
zone of inhibition at 50 µg/disc [2]: 1 mm
